Measurements taken from patent US20230331676A1, “NAPHTHYLUREA COMPOUND, METHODS OF PREPARATION AND USE THEREOF” (Henan Radiomedical Science and Technology Co., Ltd., priority 2021, published 2023).

How the values were obtained:
Type in all cases: cell-based
HepG2 cells [1] = test: Apoptosis by Annexin V-FITC/PI flow cytometry, HepG2; settings: HepG2, 0, 2, 4, 8 μM, 48 h, vs control group
Protocol: (§1) The MDA-MB-468 or HepG2 cells were harvested during log phase, digested, centrifuged and prepared into a single cell suspension; the number of the cells in the cell suspension was counted; the cells were seeded into a 12-well plate, with 2×10^5 cells per well; three wells were used as a parallel control design; 16 hours after seeding, the cells were treated with the compounds.
(§2) With DMSO as a solvent, the final concentrations of the compounds IY210216D-1 and ID210203C-1 in HepG2 cell suspension were 0, 2, 4 and 8 μM, respectively, and the final concentrations of the compound IY210316B-1 in MDA-MB-468 cell suspension were 0 and 0.12 μM, respectively. […]

HepG2 liver cancer cells = test: Q-PCR of mRNA level of cell cycle and metastasis related molecules; settings: HepG2, 4 μM, 24 hours; for down-regulation of Cyclin B1 (CCNB1) mRNA level / down-regulation of Cyclin D1 (CCND1) mRNA level: relative to actin gene
Protocol: HepG2 liver cancer cells were seeded in a 6-well plate, with 1×10^6 cells per well, and treated with the compounds IY210216D-1 and ID210203C-1 (in 0 and 4 μM concentrations) for 24 h; total RNA was extracted from the HepG2 liver cancer cells by a single-step TRIzol method; the concentration and purity of the total RNA was measured; the total RNA was used as a template; and complementary DNA (cDNA) was synthesized from the RNA template according to the instruction of a reverse transcription kit (Promega); sqRT-PCR and qPCR were used to quantify the expression of the genes CCNB1, CDK1 and SQSTM; and the gene ACTB was used as an internal reference gene for gene expression normalization.
A20 μL reaction mix for qPCR contained: • 2 μL of cDNA; • 10 μL of 2×SYBR Green Supermix; • 1 μL of upstream and downstream primers; • 0.3 μL of reference dye; • 6.7 μL of water. • Each sample has three technical replicates. • Cycling conditions comprised: • pre-denaturation at 95° C. for 5 min; • denaturation at 95° C. for 15 sec; • annealing at 60° C. for 15 sec; and • extension at 72° C. for 30 sec.
After 40 cycles, the cycle […] (CT) value of the […] gene was used as an initial value in comparison with the amount of the amplified product.

[2] = test system: JAK2/STAT3 signal axis in MDA-MB-468 or HepG2 cells; test: Western blot of JAK2/STAT3 signal axis protein expression; settings: MDA-MB-468 (0, 0.5, 1 μM) or HepG2 (0-8 μM), 48 h, vs solvent control; dose-dependent
Protocol: MDA-Mb-468 or HepG2 cells in logarithmic growth phase were inoculated in a 6-well plate, with 8×10^5 cells per well. After cell adhesion, the compound ID210203C-1 was added until a final concentration thereof was 0, 0.5, 1 or 0, 0.5, 1, 2, 4 and 8 μM respectively. After about 48 hours, the cells were lysed with RIPA lysate and proteins were collected for Western blot analysis. The protein expressions were respectively detected through the anti-JAK2, p-JAK2, STAT3, p-STAT3, CyclinD1, p-AKT, p-ERK and β-actin antibodies.

[3] = test system: tumor cells such as breast cancer (MDA-MB-468) and liver cancer (HepG2); test: MTT assay, inhibition of tumor cell proliferation; settings: 48 h, compared with positive control WP1066, IC50 values only in FIG. 1
Protocol: Tumor cells in logarithmic growth phase were collected; the cell suspension was diluted to a density of 5×10^4 cells/mL; 100 uL of the cell suspension was transferred to each hole of a 96-well plate; DMSO was used as a solvent for negative control; (2E)-3-(6-bromo-2-pyridyl)-2-cyano-N-[(1S)-1-phenylethyl]-2-acrylamide (WP1066CAS: 857064-38-1, with a formula
was used as a positive control; the naphthylurea compounds IY210216D-1, ID210203C-1 and IY210316B-1 were diluted with DMSO and added into the 96-well plate to a final concentration of 0.1, 0.3, 1, 3, 10, 30, 100 and 300 μmol/L; the 96-well plate was incubated for 48 h; 10 μL of MTT solvent (5 mg/mL) was added into each well; the 96-well plate was incubated at 37° C. for 4 h; a culture supernatant was discarded; 150 μL of DMSO was added into each well; the 96-well plate was shaken for 10 min on a plate shaker; an optical density (OD) of the resulting product was measured at a wavelength of 490 nm by an ELISA reader. Test results were recorded. A cell growth curve was drawn with the dosage of each compound as abscissa and the absorbance value as ordinate. The statistical results of the half inhibition rate (IC50 value) of tumor cells by the compounds IY210216D-1, ID210203C-1 and IY210316B-1 were shown in FIG. 1.

MDA-MB-468 cells [4] = test: Cell cycle distribution by flow cytometry (PI), MDA-MB-468; settings: breast cancer cells (MDA-MB-468), 2 μM, 48 h, vs DMSO
Protocol: (§3) MDA-MB-468 or HepG2 cells were harvested during log phase, digested, centrifuged and prepared into a single cell suspension; the number of the cells in the single cell suspension was counted; the cells were seeded into a 12-well plate, with 2×10^5 cells per well; three wells were used as a parallel control design; 16 hours after seeding, the cells were treated with the compounds. With DMSO as a solvent, the final concentrations of the compounds IY210216D-1 and ID210203C-1 in HepG2 cell suspension were 0, 2, 4 and 8 μM, respectively, and the final concentrations of the compounds IY210216D-1 and ID210203C-1 in MDA-MB-468 cell suspension were 0 and 2 μM, respectively. 48 hours later, the cells were digested with trypsin and resuspended; the number of the cells in the cell suspension was counted and diluted to 5×10^5 cells/mL; after the digestion was completed, the cell suspension was centrifuged; the supernatant was discarded; the pellet was washed twice with PBS (each time the mixture was centrifuged 2000 rpm for 5 min); the supernatant was discarded; a fixative comprising 980 μL of 70% cold ethanol and 20 μL of 5% BSA (a small amount of BSA reduces cellular stress and damage) was added to each microcentrifuge tube, so that the cells were fixed overnight at 4° C.; the fixative is discarded; the cells were washed three times in PBS to remove residual fixative (each time the mixture was centrifuged at 1000 rpm for 3 min); a DNA quantification kit is used to measure the content of DNA according to the following instruction (Suo Laibao, Beijing): each sample was incubated in 100 μL of RNase A at 37° C. for 30 min; 500 μL of PI (propidium iodide) was added to each sample; each sample was incubated at room temperature for 30 min in the dark; the cell cycle was analyzed by a flow cytometry and a ModFit software; and Graphpad prism 6.0 was used to estimate the percentage of a cell population in the different phases of the cell cycle.

HepG2 cells [5] = test: Cell cycle distribution by flow cytometry (PI), HepG2; settings: hepatoma cells (HepG2), 2, 4, 8 μM, 48 h, vs DMSO
Protocol: as §3

MDA-MB-468 cells [6] = test: Apoptosis by Annexin V-FITC/PI flow cytometry, MDA-MB-468
Protocol: as §1, §2

SMILES	induction of apoptosis (HepG2 cells [1])	expression of MMP9 at mRNA level (HepG2 liver cancer cells)	down-regulation of Cyclin B1 (CCNB1) mRNA level (HepG2 liver cancer cells) [folds]	down-regulation of Cyclin D1 (CCND1) mRNA level (HepG2 liver cancer cells) [folds]	expression level of CyclinD1 [2]	expression level of p-JAK2 [2]	expression level of p-STAT3 [2]	inhibitory effect on the proliferation of tumor cells [3]	G1 phase ratio (MDA-MB-468 cells [4])	S phase ratio (MDA-MB-468 cells [4])	G1 phase ratio (HepG2 cells [5])	G2 phase ratio (HepG2 cells [5])	apoptosis of breast cancer cells (MDA-MB-468 cells [6]; 0.12 μM, 48 hours) [%]	induction of apoptosis (MDA-MB-468 cells [6]; MDA-MB-468, 0 and 0.12 μM, 48 h, vs control group)
O=C(NCc1ccncc1)Nc1ccc(OCc2ccc(OCCN3CCCCC3)cc2)c2ccccc12 [ID210203C-1]	increased apoptosis in a dose-dependent manner	down-regulating	~10	~10	significantly inhibit	significantly inhibit	significantly inhibit	good inhibitory effects	decrease	significant increase	significant decrease	significant increase		
O=C(Nc1ccc(OCc2ccc(OCCN3CCCCC3)cc2)c2ccccc12)NC1CCOCC1 [IY210216D-1]	increased apoptosis in a dose-dependent manner	down-regulating	~10	~10				good inhibitory effects	decrease	significant increase	significant decrease	significant increase		
O=C(NCc1ccccn1)Nc1ccc(OCc2ccc(OCCN3CCCCC3)cc2)c2ccccc12 [IY210316B-1, 1-(4-((4-(2-(piperidin-1-yl)ethoxy)benzyl)oxy)naphthalen-1-yl)-3-(pyridin-2-ylmethyl)urea]								good inhibitory effects					43.86	increased apoptosis in a dose-dependent manner
